Measurements from article PMC7901646, “Pyrrolo[2′,3′:3,4]cyclohepta[1,2-d][1,2]oxazoles, a New Class of Antimitotic Agents Active against Multiple Malignant Cell Types” (Journal of Medicinal Chemistry, 2020).

Assays:
Type in all cases: cell-based
A498 = test: NCI-60 screen; conditions: Homo sapiens, Renal Cancer
Protocol: (§1) All the synthesized compounds 51–76 were tested at a 10^–5 M concentration for their antitumor activity on the full NCI-60 panel comprising cancer cell lines derived from nine human cancer cell types (leukemia, non-small-cell lung, colon, central nervous system, melanoma, ovarian, renal, prostate, and breast).[50]

ACHN = test: NCI-60 screen; conditions: Homo sapiens, Renal Cancer
Protocol: as §1

CAKI-1 = test: NCI-60 screen; conditions: Homo sapiens, Renal Cancer
Protocol: as §1

COLO 205 = test: NCI-60 screen; conditions: Homo sapiens, Colon Cancer
Protocol: as §1

DU-145 = test: NCI-60 screen; conditions: Homo sapiens, Prostate Cancer
Protocol: as §1

HCT-15 = test: NCI-60 screen; conditions: Homo sapiens, Colon Cancer
Protocol: as §1

HL-60(TB) = test: NCI-60 screen; conditions: Homo sapiens, Leukemia
Protocol: as §1

HT29 = test: NCI-60 screen; conditions: Homo sapiens, HT-29; Colon Cancer
Protocol: as §1

IGROV1 = test: NCI-60 screen; conditions: Homo sapiens, IGROV-1; Ovarian Cancer
Protocol: as §1

K-562 = test: NCI-60 screen; conditions: Homo sapiens, K562; Leukemia
Protocol: as §1

M14 = test: NCI-60 screen; conditions: Homo sapiens, Melanoma
Protocol: as §1

MCF7 = test: NCI-60 screen; conditions: Homo sapiens, Breast Cancer
Protocol: as §1

MDA-MB-435 = test: NCI-60 screen; conditions: Homo sapiens, Melanoma
Protocol: as §1

MOLT-4 = test: NCI-60 screen; conditions: Homo sapiens, Leukemia
Protocol: as §1

NCI-H460 = test: NCI-60 screen; conditions: Homo sapiens, Non-Small-Cell Lung Cancer
Protocol: as §1

NCI/ADR-RES = test: NCI-60 screen; conditions: Homo sapiens, Ovarian Cancer
Protocol: as §1

PC-3 = test: NCI-60 screen; conditions: Homo sapiens, Prostate Cancer
Protocol: as §1

SF-268 = test: NCI-60 screen; conditions: Homo sapiens, CNS Cancer
Protocol: as §1

SF-295 = test: NCI-60 screen; conditions: Homo sapiens, CNS Cancer
Protocol: as §1

SK-MEL-5 = test: NCI-60 screen; conditions: Homo sapiens, Melanoma
Protocol: as §1

SK-OV-3 = test: NCI-60 screen; conditions: Homo sapiens, Ovarian Cancer
Protocol: as §1

SR = test: NCI-60 screen; conditions: Homo sapiens, Leukemia
Protocol: as §1

SW-620 = test: NCI-60 screen; conditions: Homo sapiens, Colon Cancer
Protocol: as §1

TK-10 = test: NCI-60 screen; conditions: Homo sapiens, Renal Cancer
Protocol: as §1

KM12 = test: NCI-60 screen; conditions: Homo sapiens, Colon Cancer
Text: (§2) on the full NCI-60 panel comprising cancer cell lines derived from nine human cancer cell types (leukemia, non-small-cell lung, colon, central nervous system, melanoma, ovarian, renal, prostate, and breast).[50]

LOX IMVI = test: NCI-60 screen; conditions: Homo sapiens, Melanoma
Text: as §2

NCI-H522 = test: NCI-60 screen; conditions: Homo sapiens, Non-Small-Cell Lung Cancer
Text: as §2

OVCAR-3 = test: NCI-60 screen; conditions: Homo sapiens, Ovarian Cancer
Text: as §2

HBL1 (ABC DLBCL) = test: MTT cell proliferation, lymphoma; conditions: Homo sapiens, 72 h; for activity at 1 µM: of untreated cells, read-out: Proliferating cells (%); for IC50: MTT
Protocol: (§3) All compounds were further tested at the concentration of 1 μM on four cell lines derived from distinct lymphoma histotypes, plus two with secondary resistance to the PI3Kδ inhibitor idelalisib[51] or to the BTK inhibitor ibrutinib.[52] […] For comparison, the same experiments were conducted using compound 3, but the response to it was minimal, and thus it was not considered further.
(§4) Established human cell lines derived from germinal center B-cell (GCB) (SU-DHL-10), activated B-cell (ABC) (HBL1) diffuse large B-cell lymphoma (DLBCL), mantle cell lymphoma (MCL) (MINO), splenic marginal zone lymphoma (SMZL) (parental VL51, VL51 idelalisib resistant clone, VL51 ibrutinib resistant clone) were cultured in culture RPMI-1640 media supplemented with fetal bovine serum (10%), penicillin–streptomycin–neomycin (∼5,000 units of penicillin, 5 mg of streptomycinm and 10 mg of neomycin/mL, Sigma), and L-glutamine (1%). Vincristine sulfate was purchased from Sigma-Aldrich. Cell line identities were confirmed by CellCheck test (IDEXX, BioResearch, Ludwigsburg, Germany). All compounds were dissolved in dimethyl sulfoxide to obtain a stock concentration of 10 mM.
(§5) The antiproliferative activity of all compounds was assessed by using the 3-(4.5-dimethylthiazolyl-2)-2,5-diphenyltetrazolium bromide (MTT) test. Cells were seeded in 96-well plates (nontissue culture treated) at a density of 1 × 10^5 cells/mL and treated with a single concentration of 1 μM for 72 h. […] In this case, cells were treated in triplicate with serially diluted compounds in the appropriate tissue culture medium at a range of 40–10 000 nM. Cells were incubated for 72 h at 37 °C, 5% CO2. Wells containing medium only were included on each plate and served as blanks for absorbance readings. MTT (Sigma, Buchs, Switzerland) was prepared as a 5 mg/mL stock solution in phosphate buffered saline (PBS) and filter-sterilized. MTT solution (22 μL) was added to each well, and tissue culture plates were incubated at 37 °C for 4 h. Cells were then lysed with 25% sodium dodecyl sulfate lysis buffer, and absorbance was read at 570 nm using a Beckman Coulter-AD340 plate reader.

MINO (MCL) = test: MTT cell proliferation, lymphoma; conditions: Homo sapiens, 72 h; for activity at 1 µM: of untreated cells, read-out: Proliferating cells (%); for IC50: MTT
Protocol: as §3, §4, §5

SU-DHL-10 (GCB DLBCL) = test: MTT cell proliferation, lymphoma; conditions: Homo sapiens, SU-DHL10, 72 h; for activity at 1 µM: of untreated cells, read-out: Proliferating cells (%); for IC50: MTT
Protocol: as §3, §4, §5

VL51 (MZL) = test: MTT cell proliferation, lymphoma; conditions: Homo sapiens, 72 h; for activity at 1 µM: of untreated cells, read-out: Proliferating cells (%); for IC50: MTT
Protocol: as §3, §4, §5

VL51 ibrutinib-resistant = test: MTT cell proliferation, lymphoma; conditions: Homo sapiens, 72 h, of untreated cells, read-out: Proliferating cells (%)
Protocol: as §3, §4, §5

[1] = tested on: VL51 idelalisib-resistant; test: MTT cell proliferation, lymphoma; conditions: Homo sapiens, 72 h, of untreated cells, read-out: Proliferating cells (%)
Protocol: as §3, §4, §5

Compound | GI50 (A498) [nM] | GI50 (ACHN) [nM] | GI50 (CAKI-1) [nM] | GI50 (COLO 205) [nM] | GI50 (DU-145) [nM] | GI50 (HCT-15) [nM] | GI50 (HL-60(TB)) [nM] | GI50 (HT29) [nM] | GI50 (IGROV1) [nM] | GI50 (K-562) [nM] | GI50 (M14) [nM] | GI50 (MCF7) [nM] | GI50 (MDA-MB-435) [nM] | GI50 (MOLT-4) [nM] | GI50 (NCI-H460) [nM] | GI50 (NCI/ADR-RES) [nM] | GI50 (PC-3) [nM] | GI50 (SF-268) [nM] | GI50 (SF-295) [nM] | GI50 (SK-MEL-5) [nM] | also measured
CCOC(=O)c1cc2c(n1Cc1ccccc1OC)-c1oncc1CCC2 [Compound 62, Ethyl 9-(2-Methoxybenzyl)-4,5,6,9-tetrahydropyrrolo[2′,3′:3,4]cyclohepta[1,2-d][1,2]oxazole-8-carboxylate] | 3460 | 16600 | 3510 | 870 | 5270 | 2240 | 3040 | 910 | 1990 | 1590 | 3670 | 710 | 350 | 5680 | 3880 | 1360 | 2480 | 46200 | 1380 | 2610 | GI50 (SK-OV-3): 2700 nM; GI50 (SR): 430 nM; GI50 (SW-620): 2020 nM; GI50 (TK-10): 67800 nM; GI50 (KM12): 2100 nM; GI50 (LOX IMVI): 7640 nM; GI50 (NCI-H522): 350 nM; GI50 (OVCAR-3): 870 nM; activity at 1 µM (HBL1 (ABC DLBCL)): 128%; IC50 (HBL1 (ABC DLBCL)): > 5000 nM; activity at 1 µM (MINO (MCL)): 104%; IC50 (MINO (MCL)): 4000 nM; activity at 1 µM (SU-DHL-10 (GCB DLBCL)): 51.1%; IC50 (SU-DHL-10 (GCB DLBCL)): 3600 nM; activity at 1 µM (VL51 (MZL)): 71.3%; IC50 (VL51 (MZL)): 3200 nM; activity at 1 µM (VL51 ibrutinib-resistant): 80.3%; activity at 1 µM [1]: 63.6%
CCOC(=O)c1cc2c(n1Cc1cccc(OC)c1)-c1oncc1CCC2 [Compound 63, Ethyl 9-(3-Methoxybenzyl)-4,5,6,9-tetrahydropyrrolo[2′,3′:3,4]cyclohepta[1,2-d][1,2]oxazole-8-carboxylate] | 440 | 3400 | 2310 | 580 | 2180 | 450 | 530 | 360 | 1160 | 390 | 540 | 370 | 150 | 2300 | 3530 | 430 | 2350 | 6710 | 620 | 750 | GI50 (SK-OV-3): 2830 nM; GI50 (SR): 280 nM; GI50 (SW-620): 480 nM; GI50 (TK-10): 11200 nM; GI50 (KM12): 460 nM; GI50 (LOX IMVI): 1750 nM; GI50 (NCI-H522): 230 nM; GI50 (OVCAR-3): 300 nM; activity at 1 µM (HBL1 (ABC DLBCL)): 117%; IC50 (HBL1 (ABC DLBCL)): > 5000 nM; activity at 1 µM (MINO (MCL)): 86.3%; IC50 (MINO (MCL)): 2600 nM; activity at 1 µM (SU-DHL-10 (GCB DLBCL)): 51.5%; IC50 (SU-DHL-10 (GCB DLBCL)): 3000 nM; activity at 1 µM (VL51 (MZL)): 66.7%; IC50 (VL51 (MZL)): 2300 nM; activity at 1 µM (VL51 ibrutinib-resistant): 64.9%; activity at 1 µM [1]: 62.3%
CCOC(=O)c1cc2c(n1Cc1cc(OC)cc(OC)c1)-c1oncc1CCC2 [Compound 66, Ethyl 9-(3,5-Dimethoxybenzyl)-4,5,6,9-tetrahydropyrrolo[2′,3′:3,4]cyclohepta[1,2-d][1,2]oxazole-8-carboxylate] | 20 | 60 | 50 | 30 | 40 | 40 | 30 | 30 | 60 | 40 | 50 | 30 | 10 | 260 | 40 | 30 | 40 | 50 | 30 | 40 | GI50 (SK-OV-3): 50 nM; GI50 (SR): 30 nM; GI50 (SW-620): 40 nM; GI50 (TK-10): > 100000 nM; GI50 (KM12): 30 nM; GI50 (LOX IMVI): 50 nM; GI50 (NCI-H522): 20 nM; GI50 (OVCAR-3): 20 nM; activity at 1 µM (HBL1 (ABC DLBCL)): 24.1%; IC50 (HBL1 (ABC DLBCL)): 300 nM; activity at 1 µM (MINO (MCL)): 9.1%; IC50 (MINO (MCL)): 250 nM; activity at 1 µM (SU-DHL-10 (GCB DLBCL)): 11.3%; IC50 (SU-DHL-10 (GCB DLBCL)): 250 nM; activity at 1 µM (VL51 (MZL)): 40.1%; IC50 (VL51 (MZL)): 250 nM; activity at 1 µM (VL51 ibrutinib-resistant): 40.5%; activity at 1 µM [1]: 34.3%
